Data: ChEMBL document CHEMBL1641539 (Bioorg Med Chem Lett, 2011)

Tests used:
[1] = target: Tyrosine-protein kinase ABL1 (Homo sapiens) (UniProt P00519); experiment: Inhibition of ABL1 at 10 uM after 60 mins by TR-FRET assay
[2] = target: RAC-alpha serine/threonine-protein kinase (Homo sapiens) (UniProt P31749); experiment: Inhibition of AKT1 at 10 uM after 60 mins by TR-FRET assay
[3] = target: T1, Aurora kinase A (Homo sapiens) (UniProt O14965); experiment: Inhibition of Aurora A at 10 uM after 60 mins by TR-FRET assay
T1 sequence (whole entry): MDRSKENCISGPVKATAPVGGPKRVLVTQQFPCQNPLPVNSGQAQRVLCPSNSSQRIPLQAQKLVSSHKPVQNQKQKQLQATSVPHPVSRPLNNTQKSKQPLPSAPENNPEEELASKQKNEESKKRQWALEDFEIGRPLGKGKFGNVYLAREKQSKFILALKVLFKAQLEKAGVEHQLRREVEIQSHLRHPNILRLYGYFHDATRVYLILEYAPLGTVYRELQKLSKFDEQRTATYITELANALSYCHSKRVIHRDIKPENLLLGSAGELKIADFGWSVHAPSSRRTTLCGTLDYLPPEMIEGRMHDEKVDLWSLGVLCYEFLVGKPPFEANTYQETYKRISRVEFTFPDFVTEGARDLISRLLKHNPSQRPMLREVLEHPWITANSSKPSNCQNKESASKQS

[4] = target: Calcium/calmodulin-dependent protein kinase type II subunit alpha (Homo sapiens) (UniProt Q9UQM7); experiment: Inhibition of CAMK2A at 10 uM after 60 mins by TR-FRET assay
[5] = target: Cyclin-dependent kinase 1/cyclin B (Homo sapiens) (UniProt P06493+P14635+Q8WWL7+O95067); experiment: Inhibition of CDK1/cyclin B at 10 uM after 60 mins by TR-FRET assay; assay type: protein-complex assay
[6] = target: Cyclin-dependent kinase 2/cyclin A (Homo sapiens) (UniProt P24941+P20248+P78396); experiment: Inhibition of CDK2/cyclin A at 10 uM after 60 mins by TR-FRET assay; assay type: protein-complex assay
[7] = target: Cyclin-dependent kinase 5/CDK5 activator 1 (Homo sapiens) (UniProt Q00535+Q15078); experiment: Inhibition of CDK5/p25 at 10 uM after 60 mins by TR-FRET assay; assay type: protein-complex assay
[8] = target: Dual specificity protein kinase CLK1 (Homo sapiens) (UniProt P49759); experiment: Inhibition of CLK1 at 10 uM after 60 mins by TR-FRET assay
[9] = target: Macrophage colony-stimulating factor 1 receptor (Homo sapiens) (UniProt P07333); experiment: Inhibition of CSF1R at 10 uM after 60 mins by TR-FRET assay
[10] = target: Dual specificity tyrosine-phosphorylation-regulated kinase 1B (Homo sapiens) (UniProt Q9Y463); experiment: Inhibition of DYRK1B at 10 uM after 60 mins by TR-FRET assay
[11] = target: Receptor tyrosine-protein kinase erbB-4 (Homo sapiens) (UniProt Q15303); experiment: Inhibition of ERBB4 at 10 uM after 60 mins by TR-FRET assay
[12] = target: Receptor-type tyrosine-protein kinase FLT3 (Homo sapiens) (UniProt P36888); experiment: Inhibition of FLT3 at 10 uM after 60 mins by TR-FRET assay
[13] = target: Glycogen synthase kinase-3 beta (Homo sapiens) (UniProt P49841); experiment: Inhibition of GSK3B at 10 uM after 60 mins by TR-FRET assay
[14] = target: Insulin receptor (Homo sapiens) (UniProt P06213); experiment: Inhibition of INSR at 10 uM after 60 mins by TR-FRET assay
[15] = target: Leucine-rich repeat serine/threonine-protein kinase 2 (Homo sapiens) (UniProt Q5S007); experiment: Inhibition of LRRK2 at 10 uM after 60 mins by TR-FRET assay
[16] = target: T2, Mitogen-activated protein kinase 1 (Homo sapiens, UniProt P28482); experiment: Inhibition of MAPK1 at 10 uM after 60 mins by TR-FRET assay
T2 sequence (P28482 whole entry): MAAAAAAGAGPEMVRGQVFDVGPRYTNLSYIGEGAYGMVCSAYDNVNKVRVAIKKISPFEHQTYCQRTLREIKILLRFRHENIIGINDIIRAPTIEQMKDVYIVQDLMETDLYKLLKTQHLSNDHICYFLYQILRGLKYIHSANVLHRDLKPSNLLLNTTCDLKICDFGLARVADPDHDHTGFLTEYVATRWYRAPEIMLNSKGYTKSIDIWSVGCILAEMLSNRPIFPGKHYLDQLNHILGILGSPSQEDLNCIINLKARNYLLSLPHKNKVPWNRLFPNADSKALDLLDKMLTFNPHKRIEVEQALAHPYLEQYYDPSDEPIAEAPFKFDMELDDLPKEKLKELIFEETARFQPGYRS

[17] = target: Mitogen-activated protein kinase 10 (Homo sapiens, UniProt P53779); experiment: Inhibition of MAPK10 at 10 uM after 60 mins by TR-FRET assay
Mitogen-activated protein kinase 10, sequence (P53779 whole entry): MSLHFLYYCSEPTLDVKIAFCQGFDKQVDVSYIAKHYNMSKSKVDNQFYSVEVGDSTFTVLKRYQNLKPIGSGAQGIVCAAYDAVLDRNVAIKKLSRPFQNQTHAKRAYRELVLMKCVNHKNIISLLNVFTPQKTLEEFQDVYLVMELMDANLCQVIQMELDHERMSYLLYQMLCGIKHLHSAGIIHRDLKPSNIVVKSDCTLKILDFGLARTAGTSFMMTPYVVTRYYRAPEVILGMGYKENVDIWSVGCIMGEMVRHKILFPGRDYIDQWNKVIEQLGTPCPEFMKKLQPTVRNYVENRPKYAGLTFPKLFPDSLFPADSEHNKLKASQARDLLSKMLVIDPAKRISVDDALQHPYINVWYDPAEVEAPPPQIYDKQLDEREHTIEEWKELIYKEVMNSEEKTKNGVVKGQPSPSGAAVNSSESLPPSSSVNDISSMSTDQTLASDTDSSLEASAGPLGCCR

[18] = target: Serine/threonine-protein kinase MARK2 (Homo sapiens) (UniProt Q7KZI7); experiment: Inhibition of MARK2 at 10 uM after 60 mins by TR-FRET assay
[19] = target: Platelet-derived growth factor receptor alpha (Homo sapiens) (UniProt P16234); experiment: Inhibition of PDGFRA at 10 uM after 60 mins by TR-FRET assay
[20] = target: PI3-kinase p110-alpha/p85-alpha (Homo sapiens) (UniProt P27986+P42336); experiment: Inhibition of p110alpha/p85alpha at 10 uM after 60 mins by TR-FRET assay; assay type: protein-complex assay
[21] = target: Serine/threonine-protein kinase PLK1 (Homo sapiens) (UniProt P53350); experiment: Inhibition of PLK1 at 10 uM after 60 mins by TR-FRET assay
[22] = target: Serine/threonine-protein kinase PLK2 (Homo sapiens) (UniProt Q9NYY3); experiment: Inhibition of PLK2 at 10 uM after 60 mins by TR-FRET assay
[23] = target: Serine/threonine-protein kinase PLK3 (Homo sapiens) (UniProt Q9H4B4); experiment: Inhibition of PLK3 at 10 uM after 60 mins by TR-FRET assay
Serine/threonine-protein kinase PLK3 (Homo sapiens), sequence (Q9H4B4 whole entry, looked up): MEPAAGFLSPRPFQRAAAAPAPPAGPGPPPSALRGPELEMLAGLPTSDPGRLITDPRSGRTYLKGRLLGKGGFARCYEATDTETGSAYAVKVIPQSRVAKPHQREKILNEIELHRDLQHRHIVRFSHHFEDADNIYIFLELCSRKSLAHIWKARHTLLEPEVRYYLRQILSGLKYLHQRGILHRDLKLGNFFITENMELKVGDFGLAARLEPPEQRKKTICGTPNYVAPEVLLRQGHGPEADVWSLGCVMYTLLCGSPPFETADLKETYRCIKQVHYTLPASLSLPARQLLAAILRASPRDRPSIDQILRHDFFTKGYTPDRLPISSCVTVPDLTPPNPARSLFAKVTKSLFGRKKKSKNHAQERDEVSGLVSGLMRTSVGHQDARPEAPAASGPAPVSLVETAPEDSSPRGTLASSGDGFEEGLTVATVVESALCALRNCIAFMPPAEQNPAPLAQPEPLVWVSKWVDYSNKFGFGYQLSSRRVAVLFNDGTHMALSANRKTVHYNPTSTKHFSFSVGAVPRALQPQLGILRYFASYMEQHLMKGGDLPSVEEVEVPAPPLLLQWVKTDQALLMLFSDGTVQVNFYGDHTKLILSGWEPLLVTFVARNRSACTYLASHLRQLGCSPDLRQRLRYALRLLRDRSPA

[24] = target: Protein kinase C beta type (Homo sapiens) (UniProt P05771); experiment: Inhibition of PRKCB1 at 10 uM after 60 mins by TR-FRET assay
Protein kinase C beta type (Homo sapiens), sequence (P05771 2-671 limits assumed): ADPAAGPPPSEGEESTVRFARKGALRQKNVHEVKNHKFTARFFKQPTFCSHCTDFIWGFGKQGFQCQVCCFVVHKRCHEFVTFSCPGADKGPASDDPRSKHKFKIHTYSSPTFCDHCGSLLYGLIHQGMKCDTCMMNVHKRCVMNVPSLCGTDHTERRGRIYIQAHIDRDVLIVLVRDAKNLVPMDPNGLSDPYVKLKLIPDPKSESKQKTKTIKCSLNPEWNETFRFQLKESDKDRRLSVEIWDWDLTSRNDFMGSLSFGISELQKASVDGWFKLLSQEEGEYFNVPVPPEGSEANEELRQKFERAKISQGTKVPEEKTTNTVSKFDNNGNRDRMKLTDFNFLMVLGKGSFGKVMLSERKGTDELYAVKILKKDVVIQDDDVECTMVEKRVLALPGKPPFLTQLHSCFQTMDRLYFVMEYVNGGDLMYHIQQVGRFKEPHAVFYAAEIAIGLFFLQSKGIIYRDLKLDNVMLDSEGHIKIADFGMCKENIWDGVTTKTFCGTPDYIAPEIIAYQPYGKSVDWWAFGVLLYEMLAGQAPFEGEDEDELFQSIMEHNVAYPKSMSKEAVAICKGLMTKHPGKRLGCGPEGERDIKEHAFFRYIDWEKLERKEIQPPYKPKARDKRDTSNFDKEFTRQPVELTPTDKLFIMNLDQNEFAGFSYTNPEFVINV

[25] = target: Protein-tyrosine kinase 2-beta (Homo sapiens) (UniProt Q14289); experiment: Inhibition of PTK2B at 10 uM after 60 mins by TR-FRET assay
Protein-tyrosine kinase 2-beta (Homo sapiens), sequence (Q14289 whole entry, looked up): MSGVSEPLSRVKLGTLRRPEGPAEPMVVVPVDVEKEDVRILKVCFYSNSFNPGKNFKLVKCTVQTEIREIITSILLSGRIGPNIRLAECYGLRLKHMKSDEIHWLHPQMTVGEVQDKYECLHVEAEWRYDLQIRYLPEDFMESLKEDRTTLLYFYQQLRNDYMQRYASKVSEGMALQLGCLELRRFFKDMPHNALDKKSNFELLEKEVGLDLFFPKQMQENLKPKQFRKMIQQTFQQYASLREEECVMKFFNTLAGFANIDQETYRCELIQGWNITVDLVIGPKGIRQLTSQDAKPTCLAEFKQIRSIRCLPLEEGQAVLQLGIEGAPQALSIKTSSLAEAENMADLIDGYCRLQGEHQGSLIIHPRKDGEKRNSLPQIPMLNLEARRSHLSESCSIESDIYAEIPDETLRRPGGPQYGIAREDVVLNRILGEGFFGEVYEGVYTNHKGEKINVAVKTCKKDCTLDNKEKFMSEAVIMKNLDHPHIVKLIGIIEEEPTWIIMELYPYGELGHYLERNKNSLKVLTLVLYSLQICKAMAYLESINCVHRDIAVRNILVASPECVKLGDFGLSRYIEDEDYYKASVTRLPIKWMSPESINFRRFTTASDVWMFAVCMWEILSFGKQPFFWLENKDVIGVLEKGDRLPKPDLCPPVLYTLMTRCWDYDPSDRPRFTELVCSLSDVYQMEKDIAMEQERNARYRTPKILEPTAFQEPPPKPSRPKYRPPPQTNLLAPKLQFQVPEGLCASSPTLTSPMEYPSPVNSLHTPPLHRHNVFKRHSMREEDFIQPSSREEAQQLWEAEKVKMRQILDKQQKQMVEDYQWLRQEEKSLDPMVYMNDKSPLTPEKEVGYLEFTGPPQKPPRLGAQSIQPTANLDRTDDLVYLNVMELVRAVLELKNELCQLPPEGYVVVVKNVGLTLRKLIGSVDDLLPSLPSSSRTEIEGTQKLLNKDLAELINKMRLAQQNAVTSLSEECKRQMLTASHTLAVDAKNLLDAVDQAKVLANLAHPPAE

[26] = test system: RAF proto-oncogene serine/threonine-protein kinase (Homo sapiens), P04049 [Y340D,Y341D]; experiment: Inhibition of RAF1 Y340D, Y341D mutant at 10 uM after 60 mins by TR-FRET assay
RAF proto-oncogene serine/threonine-protein kinase (Homo sapiens), P04049 [Y340D,Y341D], sequence (P04049 whole entry Y340D/Y341D): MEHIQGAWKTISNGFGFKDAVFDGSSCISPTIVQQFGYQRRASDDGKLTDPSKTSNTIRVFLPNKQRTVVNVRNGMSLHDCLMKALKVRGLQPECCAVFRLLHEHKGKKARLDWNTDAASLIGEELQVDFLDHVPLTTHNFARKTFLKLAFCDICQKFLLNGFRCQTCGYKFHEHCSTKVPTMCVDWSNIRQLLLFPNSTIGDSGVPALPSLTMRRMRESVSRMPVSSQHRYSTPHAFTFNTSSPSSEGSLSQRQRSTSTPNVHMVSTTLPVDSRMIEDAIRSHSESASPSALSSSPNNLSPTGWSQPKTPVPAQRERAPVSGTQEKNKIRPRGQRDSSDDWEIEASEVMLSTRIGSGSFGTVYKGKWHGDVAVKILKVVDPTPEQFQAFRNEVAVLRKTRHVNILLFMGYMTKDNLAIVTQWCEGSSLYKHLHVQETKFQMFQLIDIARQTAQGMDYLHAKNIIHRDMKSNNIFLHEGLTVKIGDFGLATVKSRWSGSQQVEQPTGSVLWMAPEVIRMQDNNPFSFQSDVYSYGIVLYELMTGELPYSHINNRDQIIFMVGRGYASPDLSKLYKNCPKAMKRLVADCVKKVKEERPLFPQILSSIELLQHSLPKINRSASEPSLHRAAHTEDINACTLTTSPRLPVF

[27] = target: Receptor-interacting serine/threonine-protein kinase 2 (Homo sapiens) (UniProt O43353); experiment: Inhibition of RIPK2 at 10 uM after 60 mins by TR-FRET assay
[28] = target: Rho-associated protein kinase 2 (Homo sapiens) (UniProt O75116); experiment: Inhibition of ROCK2 at 10 uM after 60 mins by TR-FRET assay
[29] = target: Mitogen-activated protein kinase 9 (Homo sapiens, UniProt P45984); experiment: Inhibition of recombinant JNK2 after 60 mins by TR-FRET assay
Mitogen-activated protein kinase 9, sequence (P45984 whole entry): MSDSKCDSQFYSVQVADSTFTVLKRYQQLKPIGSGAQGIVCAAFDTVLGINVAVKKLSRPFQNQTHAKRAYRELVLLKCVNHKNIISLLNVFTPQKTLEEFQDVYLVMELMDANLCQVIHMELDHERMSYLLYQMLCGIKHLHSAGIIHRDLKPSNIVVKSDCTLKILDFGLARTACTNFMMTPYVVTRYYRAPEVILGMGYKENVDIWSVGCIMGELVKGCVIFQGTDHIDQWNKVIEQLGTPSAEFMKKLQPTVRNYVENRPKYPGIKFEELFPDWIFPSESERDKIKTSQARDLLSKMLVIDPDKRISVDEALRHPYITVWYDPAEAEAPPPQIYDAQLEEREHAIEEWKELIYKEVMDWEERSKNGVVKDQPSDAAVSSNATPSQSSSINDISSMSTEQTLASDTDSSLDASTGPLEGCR

[30] = target: Mitogen-activated protein kinase 8 (Homo sapiens, UniProt P45983); experiment: Inhibition of recombinant JNK1 after 60 mins by TR-FRET assay
Mitogen-activated protein kinase 8, sequence (P45983 whole entry): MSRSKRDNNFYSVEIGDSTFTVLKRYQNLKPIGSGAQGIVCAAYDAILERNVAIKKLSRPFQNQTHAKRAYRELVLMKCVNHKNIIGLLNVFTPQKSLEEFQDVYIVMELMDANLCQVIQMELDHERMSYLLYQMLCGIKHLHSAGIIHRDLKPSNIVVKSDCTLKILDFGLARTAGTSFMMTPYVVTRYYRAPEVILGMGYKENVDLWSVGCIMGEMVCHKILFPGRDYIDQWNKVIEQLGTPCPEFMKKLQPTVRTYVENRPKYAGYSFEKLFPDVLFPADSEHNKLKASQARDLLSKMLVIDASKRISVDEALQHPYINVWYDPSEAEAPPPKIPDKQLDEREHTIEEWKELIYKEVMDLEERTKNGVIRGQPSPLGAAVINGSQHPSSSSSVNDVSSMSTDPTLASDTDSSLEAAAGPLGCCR

[31] = target: T2, Mitogen-activated protein kinase 1; experiment: Inhibition of recombinant ERK2 after 60 mins by TR-FRET assay
[32] = target: Mitogen-activated protein kinase 14 (Homo sapiens, UniProt Q16539); experiment: Inhibition of recombinant p38alpha after 60 mins by TR-FRET assay
Mitogen-activated protein kinase 14, sequence (Q16539 whole entry): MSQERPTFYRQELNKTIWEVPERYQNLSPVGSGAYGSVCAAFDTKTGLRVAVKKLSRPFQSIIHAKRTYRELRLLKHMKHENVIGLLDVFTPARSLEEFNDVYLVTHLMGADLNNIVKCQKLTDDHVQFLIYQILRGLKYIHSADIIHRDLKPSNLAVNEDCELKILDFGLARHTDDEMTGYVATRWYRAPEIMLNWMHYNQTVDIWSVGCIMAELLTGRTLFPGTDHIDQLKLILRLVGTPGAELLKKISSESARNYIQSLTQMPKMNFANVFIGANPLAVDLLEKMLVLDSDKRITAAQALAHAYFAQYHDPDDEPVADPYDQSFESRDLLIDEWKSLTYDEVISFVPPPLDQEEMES

| Structure (SMILES) | inhibition [1] [%] | inhibition [2] [%] | inhibition [3] [%] | inhibition [4] [%] | inhibition [5] [%] | inhibition [6] [%] | inhibition [7] [%] | inhibition [8] [%] | inhibition [9] [%] | inhibition [10] [%] | inhibition [11] [%] | inhibition [12] [%] | inhibition [13] [%] | inhibition [14] [%] | inhibition [15] [%] | inhibition [16] [%] | inhibition [17] [%] | inhibition [18] [%] | inhibition [19] [%] | inhibition [20] [%] | other results |
| --- | --- | --- | --- | --- | --- | --- | --- | --- | --- | --- | --- | --- | --- | --- | --- | --- | --- | --- | --- | --- | --- |
| O=c1n(C2CCOCC2)nc(-c2ccnc(NC3CCCCC3)c2)n1-c1ccc2ccccc2c1 | 5 | 0 | 0 | 19 | 4 | 0 | 3 | 4 | 7 | 39 | 3 | 8 | 15 | 10 | 7 | -1 | 86 | 0 | 7 | 0 | inhibition [21]: 5%; inhibition [22]: 26%; inhibition [23]: 32%; inhibition [24]: 7%; inhibition [25]: -2%; inhibition [26]: -3%; inhibition [27]: 13%; inhibition [28]: 9%; IC50 [29]: 97 nM; IC50 [30]: 420 nM; IC50 [31]: > 50000 nM; IC50 [32]: > 50000 nM |
| O=c1[nH]nc(-c2ccnc(NC3CCCOC3)c2)n1-c1ccc2ccccc2c1 (centres undefined) | 17 | 0 | 10 | 38 | 4 | 3 | 15 | 22 | 60 | 76 | 16 | 23 | 81 | 18 | 29 | 1 | 81 | 1 | 12 | 34 | inhibition [21]: 27%; inhibition [22]: 62%; inhibition [23]: 79%; inhibition [24]: 10%; inhibition [25]: 11%; inhibition [26]: 0%; inhibition [27]: 1%; inhibition [28]: 8%; IC50 [29]: 130 nM; IC50 [30]: 740 nM; IC50 [31]: 22000 nM; IC50 [32]: > 50000 nM |
